According to ChEMBL document CHEMBL5625192, “Discovery of Ibrutinib-based BTK PROTACs with in vivo anti-inflammatory efficacy by inhibiting NF-κB activation” (Eur J Med Chem, 2023):
pEC50: −log10 of the molar value. Active and inactive are the calls of the source. No cut-off for these calls is given here.

Legend:
Type in all cases: cell-based
[1] = target: T1, Protein cereblon/Tyrosine-protein kinase BTK (Homo sapiens, UniProt Q06187+Q96SW2); test: PROTAC activity at CRBN/BTK in human Ramos cells assessed as induction of BTK degradation at 100 nM incubated for 24 hrs by Western blot analysis relative to control
Target sequence in this assay (Q06187 2-659 limits assumed): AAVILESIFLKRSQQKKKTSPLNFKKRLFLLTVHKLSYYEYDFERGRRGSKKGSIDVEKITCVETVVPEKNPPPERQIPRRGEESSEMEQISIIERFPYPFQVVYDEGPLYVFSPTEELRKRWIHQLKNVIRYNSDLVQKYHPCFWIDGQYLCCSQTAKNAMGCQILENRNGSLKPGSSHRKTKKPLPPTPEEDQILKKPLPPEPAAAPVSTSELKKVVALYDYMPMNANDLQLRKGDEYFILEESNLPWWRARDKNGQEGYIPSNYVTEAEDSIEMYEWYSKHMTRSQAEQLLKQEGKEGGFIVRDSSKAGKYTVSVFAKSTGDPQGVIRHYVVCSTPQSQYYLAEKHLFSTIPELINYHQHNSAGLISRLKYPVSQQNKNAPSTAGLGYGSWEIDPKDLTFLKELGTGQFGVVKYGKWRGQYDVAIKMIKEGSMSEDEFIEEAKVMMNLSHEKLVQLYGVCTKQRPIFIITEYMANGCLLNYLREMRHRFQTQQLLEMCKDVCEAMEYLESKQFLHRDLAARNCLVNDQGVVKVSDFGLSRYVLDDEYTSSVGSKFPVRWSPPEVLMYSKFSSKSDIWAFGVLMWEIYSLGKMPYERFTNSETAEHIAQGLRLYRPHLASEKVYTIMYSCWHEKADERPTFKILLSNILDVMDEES
Target sequence in this assay (Q96SW2 whole entry partner): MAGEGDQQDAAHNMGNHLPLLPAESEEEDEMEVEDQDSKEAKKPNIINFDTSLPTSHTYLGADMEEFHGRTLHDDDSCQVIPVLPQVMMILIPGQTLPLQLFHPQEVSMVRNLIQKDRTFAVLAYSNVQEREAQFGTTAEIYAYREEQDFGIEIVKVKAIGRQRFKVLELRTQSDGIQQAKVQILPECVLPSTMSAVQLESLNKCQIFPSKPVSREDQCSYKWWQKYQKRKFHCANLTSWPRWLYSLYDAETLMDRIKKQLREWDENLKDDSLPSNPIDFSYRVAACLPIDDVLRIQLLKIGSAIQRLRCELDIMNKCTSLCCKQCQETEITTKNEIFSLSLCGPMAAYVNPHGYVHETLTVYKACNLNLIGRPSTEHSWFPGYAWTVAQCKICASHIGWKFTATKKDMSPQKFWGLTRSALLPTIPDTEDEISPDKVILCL

[2] = target: T1, Protein cereblon/Tyrosine-protein kinase BTK; test: PROTAC activity at CRBN/BTK in human Ramos cells assessed as induction of BTK degradation at 100 nM incubated for 24 hrs by Western blot analysis
Target sequence in this assay (Q06187 2-659 limits assumed): as the sequence (Q06187 2-659 limits assumed) above
Target sequence in this assay (Q96SW2 whole entry partner): as the sequence (Q96SW2 whole entry partner) above

[3] = target: T1, Protein cereblon/Tyrosine-protein kinase BTK; test: PROTAC activity at CRBN/BTK in human MINO cells assessed as induction of BTK degradation by measuring maximal efficacy incubated for 24 hrs by Western blot analysis relative to control
Target sequence in this assay (Q06187 2-659 limits assumed): as the sequence (Q06187 2-659 limits assumed) above
Target sequence in this assay (Q96SW2 whole entry partner): as the sequence (Q96SW2 whole entry partner) above

[4] = target: T1, Protein cereblon/Tyrosine-protein kinase BTK; test: PROTAC activity at CRBN/BTK in human MINO cells assessed as hook effect at >10000 nM incubated for 24 hrs by Western blot analysis
Target sequence in this assay (Q06187 2-659 limits assumed): as the sequence (Q06187 2-659 limits assumed) above
Target sequence in this assay (Q96SW2 whole entry partner): as the sequence (Q96SW2 whole entry partner) above

[5] = target: T1, Protein cereblon/Tyrosine-protein kinase BTK; test: PROTAC activity at CRBN/BTK in human Ramos cells assessed as hook effect at 10000 nM incubated for 24 hrs by Western blot analysis
Target sequence in this assay (Q06187 2-659 limits assumed): as the sequence (Q06187 2-659 limits assumed) above
Target sequence in this assay (Q96SW2 whole entry partner): as the sequence (Q96SW2 whole entry partner) above

[6] = target: T1, Protein cereblon/Tyrosine-protein kinase BTK; test: PROTAC activity at CRBN/BTK in human Ramos cells assessed as hook effect at 1000 nM incubated for 24 hrs by Western blot analysis
Target sequence in this assay (Q06187 2-659 limits assumed): as the sequence (Q06187 2-659 limits assumed) above
Target sequence in this assay (Q96SW2 whole entry partner): as the sequence (Q96SW2 whole entry partner) above

[7] = target: T1, Protein cereblon/Tyrosine-protein kinase BTK; test: PROTAC activity at CRBN/BTK in human Ramos cells assessed as induction of BTK degradation incubated for 24 hrs by Western blot analysis
Target sequence in this assay (Q06187 whole entry): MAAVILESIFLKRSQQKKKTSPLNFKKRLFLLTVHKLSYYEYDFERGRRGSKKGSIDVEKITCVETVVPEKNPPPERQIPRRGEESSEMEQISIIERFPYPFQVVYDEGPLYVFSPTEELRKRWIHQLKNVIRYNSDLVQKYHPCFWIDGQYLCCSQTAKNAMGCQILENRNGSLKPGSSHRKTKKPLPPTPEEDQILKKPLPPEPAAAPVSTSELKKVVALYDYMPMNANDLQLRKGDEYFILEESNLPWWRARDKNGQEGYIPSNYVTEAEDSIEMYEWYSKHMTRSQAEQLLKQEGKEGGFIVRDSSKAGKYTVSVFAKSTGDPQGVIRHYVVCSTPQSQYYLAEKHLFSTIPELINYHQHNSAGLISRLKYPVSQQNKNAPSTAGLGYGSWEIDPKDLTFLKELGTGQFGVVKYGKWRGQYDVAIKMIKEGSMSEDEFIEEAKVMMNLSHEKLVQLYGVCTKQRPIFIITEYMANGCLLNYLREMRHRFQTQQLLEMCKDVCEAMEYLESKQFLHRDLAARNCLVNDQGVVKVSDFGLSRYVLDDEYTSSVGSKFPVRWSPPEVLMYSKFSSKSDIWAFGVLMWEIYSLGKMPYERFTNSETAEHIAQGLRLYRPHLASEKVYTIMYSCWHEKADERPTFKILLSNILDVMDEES
Target sequence in this assay (Q96SW2 whole entry): as the sequence (Q96SW2 whole entry partner) above

[8] = target: T1, Protein cereblon/Tyrosine-protein kinase BTK; test: PROTAC activity at CRBN/BTK in human Ramos cells assessed as induction of BTK degradation by measuring maximal efficacy incubated for 24 hrs by Western blot analysis relative to control
[9] = target: T1, Protein cereblon/Tyrosine-protein kinase BTK; test: PROTAC activity at CRBN/BTK in human MINO cells assessed as induction of BTK degradation incubated for 24 hrs by Western blot analysis
Target sequence in this assay (Q06187 whole entry): as the sequence (Q06187 whole entry) above
Target sequence in this assay (Q96SW2 whole entry): as the sequence (Q96SW2 whole entry partner) above

[10] = target: T1, Protein cereblon/Tyrosine-protein kinase BTK; test: PROTAC activity at CRBN/BTK in human Ramos cells assessed as induction of BTK degradation at 100 nM pretreated with pomalidomide for 2 hrs followed by compound treatment and measured after 8 hrs by Western blot analysis
[11] = target: T1, Protein cereblon/Tyrosine-protein kinase BTK; test: PROTAC activity at CRBN/BTK in human MINO cells assessed as hook effect upto 10000 nM incubated for 24 hrs by Western blot analysis
[12] = target: T1, Protein cereblon/Tyrosine-protein kinase BTK; test: PROTAC activity at CRBN/BTK in human Ramos cells assessed as induction of BTK degradation at 100 nM measured within 4 hrs by Western blot analysis
[13] = target: T1, Protein cereblon/Tyrosine-protein kinase BTK; test: PROTAC activity at CRBN/BTK in human Ramos cells assessed as induction of BTK degradation at 100 nM measured after 8 hrs by Western blot analysis relative to control
[14] = target: T1, Protein cereblon/Tyrosine-protein kinase BTK; test: PROTAC activity at CRBN/BTK in human Ramos cells assessed as induction of BTK degradation at 100 nM pretreated with bafilomycin for 2 hrs followed by compound treatment and measured after 8 hrs by Western blot analysis
[15] = target: T1, Protein cereblon/Tyrosine-protein kinase BTK; test: PROTAC activity at CRBN/BTK in human Ramos cells assessed as induction of BTK degradation at 100 nM pretreated with MG132 for 2 hrs followed by compound treatment and measured after 8 hrs by Western blot analysis
[16] = target: T1, Protein cereblon/Tyrosine-protein kinase BTK; test: PROTAC activity at CRBN/BTK in human Ramos cells assessed as induction of BTK degradation at 100 nM pretreated with ibrutinib for 2 hrs followed by compound treatment and measured after 8 hrs by Western blot analysis

Activity [1] [%] | pEC50 [7] | Emax [8] [%] | other results | SMILES
28.5 |  |  |  | Nc1ncnc2c1c(-c1ccc(Oc3ccccc3)cc1)nn2C1CCN(C(=O)CN2CCN(CCOCC(=O)Nc3ccc4c(c3)C(=O)N(C3CCC(=O)NC3=O)C4=O)CC2)CC1 (centres undefined)
31.3 |  |  |  | Nc1ncnc2c1c(-c1ccc(Oc3ccccc3)cc1)nn2C1CCN(CC2CN(CC3CN(c4cccc5c4C(=O)N(C4CCC(=O)NC4=O)C5=O)C3)C2)CC1 (centres undefined)
38.9 |  |  |  | Nc1ncnc2c1c(-c1ccc(Oc3ccccc3)cc1)nn2C1CCN(C(=O)CN2CCN(CCOCCOCC(=O)Nc3ccc4c(c3)C(=O)N(C3CCC(=O)NC3=O)C4=O)CC2)CC1 (centres undefined)
31.5 |  |  |  | Nc1ncnc2c1c(-c1ccc(Oc3ccccc3)cc1)nn2C1CCN(CC2CN(CC3CN(c4ccc5c(c4)C(=O)N(C4CCC(=O)NC4=O)C5=O)C3)C2)CC1 (centres undefined)
 |  |  | Activity [2]: inactive | Nc1ncnc2c1c(-c1ccc(Oc3ccccc3)cc1)nn2C1CCN(CC2CCN(c3cccc4c3C(=O)N(C3CCC(=O)NC3=O)C4=O)CC2)CC1 (centres undefined)
91 | 8.03 | 99.4 | Emax [3]: 99.5%; Activity [4]: Active; Activity [5]: Active; Activity [6]: Active; pEC50 [9]: 7.99 | Nc1ncnc2c1c(-c1ccc(Oc3ccccc3)cc1)nn2C1CCN(C(=O)CN2CCN(CC3CCN(c4cccc5c4C(=O)N(C4CCC(=O)NC4=O)C5=O)CC3)CC2)CC1 (centres undefined)
39.5 |  |  |  | Nc1ncnc2c1c(-c1ccc(Oc3ccccc3)cc1)nn2C1CCN(C(=O)CN2CCN(CC#Cc3ccc4c(c3)C(=O)N(C3CCC(=O)NC3=O)C4=O)CC2)CC1 (centres undefined)
33.6 |  |  |  | Nc1ncnc2c1c(-c1ccc(Oc3ccccc3)cc1)nn2C1CCN(C(=O)CN2CCC(CN3CCN(CC#Cc4ccc5c(c4)C(=O)N(C4CCC(=O)NC4=O)C5=O)CC3)CC2)CC1 (centres undefined)
41.8 |  |  |  | Nc1ncnc2c1c(-c1ccc(Oc3ccccc3)cc1)nn2C1CCN(C(=O)CCCN2CCN(C(=O)CCC(=O)Nc3ccc4c(c3)C(=O)N(C3CCC(=O)NC3=O)C4=O)CC2)CC1 (centres undefined)
40 |  |  |  | Nc1ncnc2c1c(-c1ccc(Oc3ccccc3)cc1)nn2C1CCN(C(=O)CCCN2CCN(CCOCC(=O)Nc3ccc4c(c3)C(=O)N(C3CCC(=O)NC3=O)C4=O)CC2)CC1 (centres undefined)
47.4 |  |  |  | Nc1ncnc2c1c(-c1ccc(Oc3ccccc3)cc1)nn2C1CCN(C(=O)c2ccc(N3CCN(CC#Cc4ccc5c(c4)C(=O)N(C4CCC(=O)NC4=O)C5=O)CC3)nc2)CC1 (centres undefined)
 |  |  | Activity [2]: inactive | Nc1ncnc2c1c(-c1ccc(Oc3ccccc3)cc1)nn2C1CCN(CC2CN(c3cccc4c3C(=O)N(C3CCC(=O)NC3=O)C4=O)C2)CC1 (centres undefined)
71.7 | 7.57 | 97.8 | Activity [5]: Active | Nc1ncnc2c1c(-c1ccc(Oc3ccccc3)cc1)nn2C1CCN(C(=O)c2ccc(N3CCN(c4ccc5c(c4)C(=O)N(C4CCC(=O)NC4=O)C5=O)CC3)nc2)CC1 (centres undefined)
61.9 |  |  |  | Nc1ncnc2c1c(-c1ccc(Oc3ccccc3)cc1)nn2C1CCN(C(=O)CN2CCN(C(=O)CCCC(=O)Nc3ccc4c(c3)C(=O)N(C3CCC(=O)NC3=O)C4=O)CC2)CC1 (centres undefined)
62.7 | 7.29 | 97.8 | Activity [5]: Active | Nc1ncnc2c1c(-c1ccc(Oc3ccccc3)cc1)nn2C1CCN(Cc2ccc(C#CC3CCN(c4ccc5c(c4)C(=O)N(C4CCC(=O)NC4=O)C5=O)CC3)nc2)CC1 (centres undefined)
61.5 |  |  |  | Nc1ncnc2c1c(-c1ccc(Oc3ccccc3)cc1)nn2C1CCN(C(=O)CN2CCN(C(=O)CCC(=O)Nc3ccc4c(c3)C(=O)N(C3CCC(=O)NC3=O)C4=O)CC2)CC1 (centres undefined)
55 |  |  |  | Nc1ncnc2c1c(-c1ccc(Oc3ccccc3)cc1)nn2C1CCN(C(=O)CCCN2CCN(CCOCCOCC(=O)Nc3ccc4c(c3)C(=O)N(C3CCC(=O)NC3=O)C4=O)CC2)CC1 (centres undefined)
36.2 |  |  |  | Nc1ncnc2c1c(-c1ccc(Oc3ccccc3)cc1)nn2C1CCN(CC2CN(CC3CCN(c4cccc5c4C(=O)N(C4CCC(=O)NC4=O)C5=O)CC3)C2)CC1 (centres undefined)
99.7 | 8.21 | 99.7 | Activity [10]: inactive; Activity [11]: inactive; Activity [12]: Active; Emax [3]: 99.7%; Activity [13]: 100%; Activity [5]: inactive; Activity [14]: Active; pEC50 [9]: 8.53; Activity [15]: inactive; Activity [16]: inactive | Nc1ncnc2c1c(-c1ccc(Oc3ccccc3)cc1)nn2C1CCN(C(=O)CN2CCN(CC3CCN(c4ccc5c(c4)C(=O)N(C4CCC(=O)NC4=O)C5=O)CC3)CC2)CC1 (centres undefined)
57.8 |  |  |  | Nc1ncnc2c1c(-c1ccc(Oc3ccccc3)cc1)nn2C1CCN(C(=O)CN2CCC(N3CCN(CC#Cc4ccc5c(c4)C(=O)N(C4CCC(=O)NC4=O)C5=O)CC3)CC2)CC1 (centres undefined)
75.7 | 7.20 | 92.4 |  | Nc1ncnc2c1c(-c1ccc(Oc3ccccc3)cc1)nn2C1CCN(CCOCCOCC(=O)Nc2ccc3c(c2)C(=O)N(C2CCC(=O)NC2=O)C3=O)CC1 (centres undefined)
67.5 | 8.14 | 97.6 | Emax [3]: 99.7%; Activity [4]: Active; Activity [6]: Active; pEC50 [9]: 8.04 | Nc1ncnc2c1c(-c1ccc(Oc3ccccc3)cc1)nn2C1CCN(C(=O)CN2CCN(CC3CN(c4cccc5c4C(=O)N(C4CCC(=O)NC4=O)C5=O)C3)CC2)CC1 (centres undefined)
58.6 | 7.34 | 95 | Activity [5]: Active | Nc1ncnc2c1c(-c1ccc(Oc3ccccc3)cc1)nn2C1CCN(Cc2ccc(C#CC3CCN(c4cccc5c4C(=O)N(C4CCC(=O)NC4=O)C5=O)CC3)nc2)CC1 (centres undefined)
